For 40 molecules, GI50 and TGI results are on record in PubChem BioAssay (NCI).

Where “and” joins values, the source holds several entries; their conditions need not be identical. Identical values can stand only once.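 Briefly, cells in 96-well plates were exposed to five compound concentrations for 48 h, and endpoints were estimated by linear interpolation. GI50 is the concentration that inhibits growth by half. The concentration for full growth arrest is given as TGI.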

This experiment concerns MDA-MB-468 breast. The experiment is described as follows: NCI-60 cell line screen, 48 h.
Consider `O=C1NC(=O)[C@@H](c2cn3c4c(cccc24)CCC3)[C@@H]1c1c[nH]c2ccccc12`, for which the GI50 was 306 nM and 260 nM; the TGI was > 10000 nM and 3810 nM.
With `O=P(Oc1ccccc1)(Oc1ccccc1)C(O)c1ccccc1` (stereo not given), the GI50 is 35000 nM and the TGI was greater than 100000 nM.
On to `O=C1C(Cl)=C(Oc2ccccc2)C(=O)c2ccccc21`, for which the GI50 was 1930 nM and the TGI worked out at 3750 nM.
As to `O=C(CSc1nc2ccc([N+](=O)[O-])cc2[nH]1)Nc1cccc(C(F)(F)F)c1`, the GI50 was 964 nM and the TGI is 4710 nM.
The like results for `Cn1cc(-c2nc(-c3c[nH]c4ncccc34)cs2)c2cc(Cl)ccc21` were, in that order, 316 nM and 2340 nM.
`COc1ccc(/C=C(\C#N)n2nnc3cc(Cl)ccc32)cc1`: the GI50 was 258 nM and the TGI is 941 nM.
The like results for `CS(=O)(=O)c1ccc(Oc2nccc(-c3c(-c4ccc(F)cc4)ncn3C3CCNCC3)n2)cc1` were, in that order, 19100 nM and greater than 25000 nM.
The matching figures for `Nc1nc(-c2cccc([N+](=O)[O-])c2)c(N=Nc2ccccc2[N+](=O)[O-])s1`: 2700 nM and 26200 nM.
Turning to `COc1ccc(-n2c(-c3ccc(NC(=O)CCCl)cc3)nnc2-c2cc(OC)c(OC)c(OC)c2)cc1`, the GI50 is 2080 nM and the TGI came to 5680 nM.
The like results for `C[C@@H](Oc1cc(-c2cnn(C3CCNCC3)c2)cnc1N)c1c(Cl)ccc(F)c1Cl` were, in that order, 1060 nM and 3720 nM.
For `O=c1oc2ccccc2c(Cl)c1Cl`, the GI50 is 1850 nM and the TGI is 4320 nM.
As for `Nc1nc(N)c2c(n1)NC(c1ccc(F)cc1)CC(c1ccc(Nc3nc(NCCO)nc(Nc4ccc(Cl)cc4)n3)cc1)=N2` (stereo not given), the GI50 is 1480 nM and the TGI was found to be 3150 nM.
The like results for `CCN(CC)c1ccc2[nH]c3c(C(N)=O)cc(=O)c(=O)c=3oc2c1` were, in that order, 1850 nM and 4750 nM.
The like results for `Clc1ccc(N2COOC3(OOC2)C2CC4CC(C2)CC3C4)cc1` were, in that order, 5800 nM and greater than 67800 nM.
The matching figures for `COc1c(O)cc2oc3cc(O)c(CC=C(C)C)c(O)c3c(=O)c2c1C/C=C(\C)CCC=C(C)C`: 7160 nM and 12500 nM.
Consider `COc1ccc(/C=C\c2cc(OC)c(OC)c(OC)c2)cc1NC(=O)[C@@H](N)CO`, for which the GI50 is less than 17.8 nM and the TGI came out at 1270 nM.
On to `COc1ccc(C(=O)c2cc(OC)c(OC)c(OC)c2)cc1/C=C/C(=O)c1ccc(O)cc1`, for which the GI50 is 2070 nM and the TGI came out at 8090 nM.
Regarding `c1ccc2c(NCCCn3ccnc3)c3oc4ccccc4c3nc2c1`, the GI50 was 1660 nM and the TGI turned out to be 3420 nM.
As to `OCc1ccc(N(Cc2ccc(F)cc2)C2CCC2)cc1Cl`, the GI50 is 17.6 nM and the TGI turned out to be 46.4 nM.
The matching figures for `COc1ccc(-c2nc3sccn3c2/C=C/C(=O)c2cc(OC)c(OC)c(OC)c2)cc1OC`: 2150 nM and 5020 nM.
Regarding `O=S(=O)(Nc1cccc2ccccc12)c1ccc(-c2cnc(C3CC3)o2)cc1`, the GI50 was 43.2 nM and the TGI was determined as 12800 nM.
The like results for `CC(C)(C)[Si](C)(C)OC1[C@@H](O[Si](C)(C)C(C)(C)C)[C@@H](CNC(=O)NC(=O)NC(=O)CI)O[C@H]1n1cnc2c(NC(=O)Nc3ccccc3)ncnc21` (stereo not given in full) were, in that order, 334 nM and 2060 nM.
`CCOC(=O)Oc1c(OC)cc(C(=O)c2ccc(OC)c(OC(=O)CCl)c2OC)cc1OC`: the GI50 was 2490 nM and the TGI was greater than 100000 nM.
The like results for `COc1ccc(/C=C/C(=O)/C=C(/C=C/c2ccc(OC)c(OC)c2)OB(F)F)cc1OC` were, in that order, 578 nM and 2890 nM.
With `O=C(Nc1cccc(NS(=O)(=O)c2ccc(F)cc2)c1)c1ccc(-c2ccccc2)cc1`, the GI50 was 2180 nM and the TGI is 9560 nM.
The like results for `O=C(Nc1ncc([N+](=O)[O-])s1)c1cccc([N+](=O)[O-])c1` were, in that order, 3420 nM and 38700 nM.
For `c1ccc(Oc2c3ccccc3nc3ccccc23)cc1`, the GI50 is 1350 nM and the TGI worked out at 4620 nM.
As for `COc1cccc(-c2nc(-c3ccc(NS(=O)(=O)c4ccccc4)cc3)[nH]c2-c2ccnc(Br)c2)c1`, the GI50 was 1980 nM and the TGI was determined as 5230 nM.
Consider `Clc1ccc(Nc2ccnc(NCCNc3ccnc4cc(Cl)ccc34)n2)cc1`, for which the GI50 was 1060 nM and the TGI came to 2340 nM.
The matching figures for `Cc1c(C(=O)CCl)c(=O)n(-c2ccccc2)n1C`: 675 nM and 3080 nM.
The matching figures for `Cc1ccc(C)c(-n2c(-c3ccc(Br)cc3)csc2=NC(=O)c2ccccc2F)c1`: greater than 100000 nM and greater than 100000 nM.
The like results for `COc1cc(-c2cc(C(=O)Nc3nc4ccccc4s3)nc3cc(-c4ccccc4)nn23)cc(OC)c1OC` were, in that order, 13900 nM and 38000 nM.
Take `C=C1C(=O)O[C@H]2[C@H]1CC/C(COC(=O)/C=C/c1cccnc1)=C\CC[C@@]1(C)O[C@@H]21`: the GI50 is 831 nM and the TGI was found to be 4300 nM.
The like results for `Cc1ccc2c(/C=C/C(=O)c3cc(CN4CCOCC4)c(O)c4nc(C)ccc34)cc(CN3CCOCC3)c(O)c2n1` were, in that order, 434 nM and 2020 nM.
Take `COC(=O)/C=C1\SC(=Nc2ccc(C(F)(F)F)cc2)N(CCc2c[nH]c3ccccc23)C1=O`: the GI50 was 2080 nM and the TGI turned out to be 4050 nM.
The like results for `CCNCCNc1cc(-c2ccc(Cl)cc2)c(C#N)c2nc3ccccc3n12` were, in that order, 642 nM and 2090 nM.
`O=C1c2[nH]cc(CN[C@@H]3CCCN3)c2C(=O)c2c1c(O)c1ccccc1c2O`: the GI50 is 1180 nM and the TGI worked out at 2650 nM.
The like results for `COc1cc(-c2nnc(SCc3ccc(O)c4ncccc34)n2-c2ccccc2)cc(OC)c1OC` were, in that order, 251 nM and 2530 nM.
The like results for `CCN(Cc1ccc(F)cc1F)c1ccc(CO)c(Cl)c1` were, in that order, 15.9 nM and 39.5 nM.
The matching figures for `O=C(CCl)Nc1ccccc1SCc1cc(Cl)cc2c1OCOC2`: 1930 nM and 4500 nM.
